According to US5344831A, “Diazabicyclo derivatives” (Nisshin Flour Milling Co., Ltd., priority 1992, dated 1994):
Structures can show the parent of a compound that is named as a salt.

Key:
5-HT3 receptors = test: antagonism of the von Bezold-Jarisch reflex (bradycardia) induced by 5-HT in the anaesthetised rat; assay type: in vivo; conditions: 5-HT 30 μg/kg given 5 min later, tested as hydrochloride salts
Experimental: Temporary bradycardia is induced by administration of 5-HT (serotonin) to anaesthetised rats via jugular vein (yon Bezold Jarisch Reflex) (A. S. Paintal, Physiol. Rev., 53, 159-210 (1973 ) ).
The compounds of the present invention were evaluated for antagonism of the yon Bezold-Jarisch reflex induced by 5-HT in the anaesthetised rat according to the following method.
Rats were anaesthetised with urethane (1 g/kg, intraperitoneally ) and blood pressure and heart rate recorded from left femoral artery. Percent inhibition was calculated from bradycardia induced by 5-HT (30 μg/kg ) given 5 minutes following intrajugular administration of a compound of the invent ion, taking the bradycardia induced by the intrajugular administration of 5-HT. The compounds of the present invention were tested in the form of their hydrochloride salts.

nausea and vomiting = conditions: intravenous administration at high dose; Gralla et al, N. Engl. J. Med. 305, 905-909 (1981); cited from earlier work

SMILES | Percent Inhibition (5-HT3 receptors; 0.1 μg/kg i.v.) [%] | Percent Inhibition (5-HT3 receptors; 0.01 μg/kg i.v.) [%] | Percent Inhibition (5-HT3 receptors; 1.0 μg/kg i.v.) [%] | Percent Inhibition (5-HT3 receptors; 10 μg/kg i.v.) [%] | prevention of nausea and vomiting (nausea and vomiting)
CN1C[C@H]2C[C@@H](NC(=O)c3nn(Cc4ccccn4)c4ccccc34)C[C@@H](C1)N2C [Example 15, endo-3,9-Dimethyl-3,9-diazabicyclo[3.3.1]non-7-yl 1-(2-pyridylmethyl) indazole-3-carboxamide] | 47 | – | – | – | –
C=CCn1nc(C(=O)N[C@@H]2C[C@@H]3CN(C)C[C@H](C2)N3C)c2ccccc21 [Example 2, endo-3,9-Dimethyl-3,9-diazabicyclo[3.3.1]non-7-yl 1-allylindazole-3-carboxamide hydrochloride] | 86 | 11 | – | – | –
CN1C[C@H]2C[C@@H](NC(=O)c3nn(Cc4nc(N)nc(N)n4)c4ccccc34)C[C@@H](C1)N2C [Example 21] | 38 | 21 | 85 | – | –
CCOCCn1nc(C(=O)N[C@@H]2C[C@@H]3CN(C)C[C@H](C2)N3C)c2ccccc21 [Example 17, endo-3,9-Dimethyl-3,9-diazabicyclo[3.3.1]non-7-yl 1-ethoxyethylindazole-3-carboxamide] | 53 | 33 | – | – | –
CN1C[C@H]2C[C@@H](NC(=O)c3nn(Cc4ccc([N+](=O)[O-])cc4)c4ccccc34)C[C@@H](C1)N2C [Example 9, endo-3,9-Dimethyl-3,9-diazabicyclo[3.3.1]non-7-yl 1-(4nitrobenzyl) indazole-3-carboxamide] | 41 | 14 | 96 | – | –
CN1C[C@H]2C[C@@H](NC(=O)c3nn(CC4CC4)c4ccccc34)C[C@@H](C1)N2C [Example 4] | 60 | – | – | – | –
C=CCCCCCCn1nc(C(=O)N[C@@H]2C[C@@H]3CN(C)C[C@H](C2)N3C)c2ccccc21 [Example 6, endo-3,9-Dimethyl-3,9-diazabicyclo[3.3.1]non-7-yl 1-(7octenyl) indazole-3-carboxamide] | 19 | – | 35 | 87 | –
CN1C[C@H]2C[C@@H](NC(=O)c3nn(Cc4ccc(N)cc4)c4ccccc34)C[C@@H](C1)N2C [Example 20, endo-3,9-Dimethyl-3,9-diazabicyclo[3.3.1]non-7-yl 1-(4aminobenzyl) indazole-3-carboxamide] | 73 | 51 | – | – | –
CC(=O)N1C[C@H]2C[C@@H](NC(=O)c3n[nH]c4ccccc34)C[C@@H](C1)N2C [Example 28, endo-3-Acetyl-9-methyl-3,9-diazabicyclo[3.3.1]non-7-yl 1H-indazola-3-carboxamide] | 23 | – | 71 | – | –
CC(C)CN1C[C@H]2C[C@@H](NC(=O)c3n[nH]c4ccccc34)C[C@@H](C1)N2C [Example 29, endo-3-Isobutyl-9-methyl-3,9-diazabicyclo[3.3.1]non-7-yl 1H-indazole-3-carboxamide] | 81 | 27 | – | – | –
CN1C[C@H]2C[C@@H](NC(=O)c3nn(CC4CCCCC4)c4ccccc34)C[C@@H](C1)N2C [Example 3, endo-3,9-Dimethyl-3,9-diazabicyclo[3.3.1]non-7-yl 1-cyclohexylmethylindazole-3-carboxamide] | 13 | – | 70 | – | –
CN1C[C@H]2C[C@@H](NC(=O)c3nn(Cc4cccc(Cl)c4)c4ccccc34)C[C@@H](C1)N2C [Example 13, endo-3,9-Dimethyl-3,9-diazabicyclo[3.3.1]non-7-yl 1-(3-chlorobenzyl)indazole-3-carboxamide] | 27 | – | 71 | – | –
CC(O)Cn1nc(C(=O)N[C@@H]2C[C@@H]3CN(C)C[C@H](C2)N3C)c2ccccc21 (stereo partly drawn) [Example 19, endo-3,9-Dimethyl-3,9-diazabicyclo[3.3.1]non-7-yl 1-(2hydroxypropyl) indazole-3-carboxamide] | 59 | 40 | – | – | –
COC(=O)Cn1nc(C(=O)N[C@@H]2C[C@@H]3CN(C)C[C@H](C2)N3C)c2ccccc21 [Example 16, endo-3,9-Dimethyl-3,9-diazabicyclo[3.3.1]non-7-yl 1-methoxycarbonylmethylindazole-3-carboxamide] | 34 | – | – | 88 | –
CN1C[C@H]2C[C@@H](NC(=O)c3n[nH]c4ccccc34)C[C@@H](C1)N2 [Example 25, endo-3-Methyl-3,9-diazabicyclo[3.3.1]non-7-yl 1H-indazole-3-carboxamide] | 21 | – | – | – | –
CN1[C@@H]2C[C@@H](NC(=O)c3n[nH]c4ccccc34)C[C@H]1CN(Cc1ccc(F)cc1)C2 [Example 27, endo-3-(4-Fluorobenzyl)-9-methyl-3,9-diazabicyclo[3.3.1]non-7-yl 1H-indazole-3-carboxamide] | 75 | – | 98 | – | –
CCN(CC)CCNC(=O)c1cc(Cl)c(N)cc1OC [metoclopramide] | – | – | – | – | effectively prevented
CN1C[C@H]2C[C@@H](NC(=O)c3nn(Cc4ccccc4[N+](=O)[O-])c4ccccc34)C[C@@H](C1)N2C [Example 14, endo-3,9-Dimethyl-3,9-diazabicyclo[3.3.1]non-7-yl 1-(2-nitrobenzyl) indazole-3-carboxamide] | 18 | – | 97 | – | –
CC(C)COC(=O)n1nc(C(=O)N[C@@H]2C[C@@H]3CN(C)C[C@H](C2)N3C)c2ccccc21 [Example 18, endo-3,9-Dimethyl-3,9-diazabicyclo[3.3.1]non-7-yl 1-isobutoxycarbonylindazole-3-carboxamide] | 23 | – | 53 | – | –
CC(C)=CCn1nc(C(=O)N[C@@H]2C[C@@H]3CN(C)C[C@H](C2)N3C)c2ccccc21 [Example 8, endo-3,9-Dimethyl-3,9-diazabicyclo[3.3.1]non-7-yl 1-(3-methyl-2-butenyl) indazole-3-carboxamide] | 48 | – | 100 | – | –
COc1ccc(Cn2nc(C(=O)N[C@@H]3C[C@@H]4CN(C)C[C@H](C3)N4C)c3ccccc32)cc1 [Example 5] | 29 | – | 44 | 91 | –
CC(=O)Cn1nc(C(=O)N[C@@H]2C[C@@H]3CN(C)C[C@H](C2)N3C)c2ccccc21 [Example 12, endo-3,9-Dimethyl-3,9-diazabicyclo[3.3.1]non-7-yl 1-(2-oxopropyl) indazole-3-carboxamide] | 57 | 45 | 72 | – | –
C=CCN1C[C@H]2C[C@@H](NC(=O)c3n[nH]c4ccccc34)C[C@@H](C1)N2C [Example 26, endo-3-Allyl-9-methyl-3,9-diazabicyclo[3.3.1]non-7-yl 1H-indazole-3-carboxamide] | 38 | – | – | – | –
CN1C[C@H]2C[C@@H](NC(=O)c3nn(Cc4ccc(C(C)(C)C)cc4)c4ccccc34)C[C@@H](C1)N2C [Example 11, endo-3,9-Dimethyl-3,9-diazabicyclo[3.3.1]non-7-yl 1-(4-tert-butylbenzyl) indazole-3-carboxamide] | 39 | – | 53 | – | –
CN1C[C@H]2C[C@@H](NC(=O)c3nn(CC#N)c4ccccc34)C[C@@H](C1)N2C [Example 10, endo-3,9-Dimethyl-3,9-diazabicyclo[3.3.1]non-7-yl 1-cyanomethylindazole-3-carboxamide] | 37 | – | 100 | – | –
CCOCCN1C[C@H]2C[C@@H](NC(=O)c3n[nH]c4ccccc34)C[C@@H](C1)N2C [Example 30, endo-3-(2-Ethoxyethyl)-9-methyl-3,9-diazabicyclo[3.3.1]non-7-yl 1H-indazole-3-carboxamide] | 52 | – | 100 | – | –
CN1[C@@H]2CNC[C@H]1C[C@@H](NC(=O)c1n[nH]c3ccccc13)C2 [Example 23, endo-9-Methyl-3,9-diazabicyclo[3.3.1]non-7-yl 1H-indazole-3-carboxamide] | 28 | – | 82 | – | –
CN1C[C@H]2C[C@@H](NC(=O)c3n[nH]c4ccccc34)C[C@@H](C1)N2Cc1ccccc1 [Example 24, endo-9-Benzyl-3-methyl-3,9-diazabicyclo[3.3.1]non-7-yl 1H-indazole-3-carboxamide] | 35 | – | – | – | –
C#CCn1nc(C(=O)N[C@@H]2C[C@@H]3CN(C)C[C@H](C2)N3C)c2ccccc21 [Example 7, endo-3,9-Dimethyl-3,9-diazabicyclo[3.3-1]non-7-Yl 1-(2propynyl) indazole-3-carboxamide] | 30 | – | 83 | – | –
CN1[C@@H]2C[C@@H](NC(=O)c3n[nH]c4ccccc34)C[C@H]1CN(Cc1ccccc1)C2 [Example 22, endo-3-Benzyl-9-methyl-3,9-diazabicyclo[3.3.1]non-7-yl 1H-indazole-3-carboxamide] | 48 | – | 87 | – | –
